Results: patent publication US12139461B1, “Piperidine compounds as PDE5 inhibitors” (KING SAUD UNIVERSITY, priority 2024, dated 2024)

Columns and labels:
[1] = Evaluation of LD50 (acute oral toxicity); type: in vivo; settings: rat, in vivo, po; single intragastric administration, rats, 24 h
Excerpt: (§1) Healthy rats were divided into groups of 10 rats and maintained as described above. Rats had free access to water and food, except for a short fasting period before the treatment with the single oral dose of compounds C9, C14 and C21 or the solvent. The compounds were formulated with 1% CMC. An approximate LD50 was initially determined in a pilot study by a so called ‘staircase method’ using a small number of animals (2 each dose) and increasing doses of tested compounds. Three doses were then chosen for the determination of oral median lethal dose (LDso) (500, 1000 and 2000 mg/kg) and given to three groups of rats (10 in each group). Another group of rats (6 rats) was given equal amounts of 1% CMC orally and served as a control group. […] After 24 hours, the number of dead rats was counted in each group. The percentage of animals that had died at each dose level was transformed to probits, and then LD50 was determined by the method of Miller and Tainter, 1944 as described previously (Randhawa M A, J Ayub Med Coll Abbottabad 21 (2009) 184-185, the contents of which are hereby incorporated by reference in their entirety).

[2] = test system: rats; experiment: Evaluation of LD50 (acute oral toxicity); type: in vivo; settings: single oral dose 500-2000 mg/kg
Excerpt: as §1

[3] = test system: male rats; experiment: Copulatory behavior testing; type: in vivo, rat; settings: 5 mg/kg oral
Procedure: Sexually mature Wistar albino male and female rats weighing 150-180 g (10-14 weeks old) were used in our study. Males were trained for sexual behavior with estrus females, that is, two hours a day for one week, before the investigations. Females were brought into the estrous phase artificially by sequential injection of estradiol benzoate (Sigma) (25 μg/animal) and progesterone (Sigma) (250 μg/animal) subcutaneously, 48 and 4 hours before pairing, respectively. Only those sexually active animals were used subsequently in the study. Sexually active rats were isolated and housed in separate cages at room temperature (24±2° C.) on a reversed day/night cycle with a relative humidity of 50-55% during the experimental period. All sexual studies were performed in a calm laboratory condition under subdued light. For the toxicity study, adult Wistar albino male rats were used separately. Rats were obtained from the Experimental Animal Care Center, College of Pharmacy, King Saud University. Animals were fed with a standard pellet diet and provided water ad libitum. All experiments were performed per the protocols and recommendations of the NIH Guide for the Care and Use of Laboratory Animals and the legal requirements of King Saud University for investigations on humans and animals.
Based on a preliminary study to select the appropriate dose for the promising synthesized compounds, the compounds were administered separately to sexually experienced male rats by oral gavage at 5 mg/kg in a 0.5% sodium carboxymethyl cellulose (CMC) vehicle. […] All solutions were freshly prepared at a concentration that allowed the administration of 1 ml/kg.
After drug treatment, rats were housed separately in transparent cages for acclimation. Thirty minutes after drug treatment, a sexually receptive female rat with estrous phase was introduced in each cage for 30 min and the following parameters of the copulatory behavior were recorded: namely mount latency (ML; time from introduction of the female until the first mount with or without penile insertion, it measures the degree of arousal or sexual interest or libido of the male), mount frequency (MF; the number of mounts until ejaculation, it is a measure of the degree of the male's sexual interest or libido), intromission latency (IL; time from introduction of the female until the first intromission, it measures the degree of sexual excitement and erection), intromission frequency (IF; number of vaginal penetrations until ejaculation, it measures the degree of erection), ejaculation latency (EL; time from the first intromission until ejaculation, it determines the excellent organization of copulation in rats) and post-ejaculatory interval (PEI; time interval between an ejaculation and the following first mount, it measures the refractory period that comes after ejaculation). Latency values represent the number of seconds that elapses from the introduction of the female into the copulatory arena until the male executes the first mount, intromission or ejaculation. Frequency values represent the number of ejaculations, mounts or intromission recorded during the copulatory test.
Depending on these parameters, the following can be calculated: Copulatory efficiency (CE)=(IF/MF)×100 and mean intromission interval (MII)=EL/IF as previously described (Aydogan F. et al., J Ethnopharmacol 257 (2020) 112868; Besong E B. et al., Biochem Res Int 2018 (2018) 2869727, the contents of each of which are hereby incorporated by reference in their entirety). Experiments were repeated blindly three times using new fresh (unused) animals in each experiment.

[4] = test system: male diabetic rats; experiment: Copulatory behavior testing in diabetic animals; type: in vivo, rat; settings: 5 mg/kg/day for 14 days
Procedure: Nearly 90% of the population suffering from diabetic conditions report disturbances in sexual function, encompassing a decrease in libido, impotence and infertility (Kamenov Z A, Exp Clin Endocrinol Diabetes 123 (2015) 141-158). Diabetic was induced in experimental animals by intraperitoneal administration of streptozotocin in separate groups of male animals. Diabetes was induced by a single intraperitoneal injection of freshly prepared 65 mg/kg streptozotocin in […] citrate buffer, pH 4.4 (Mendez J D and Ramos H G, Arch Med Res 25 (1994) 367-375). All rats receiving streptozotocin were given a 10% sucrose solution in the first 48 h after injection to prevent hypoglycemia. After 72 h of streptozotocin administration, rats with fasting serum glucose more than 350 mg/dL were considered as diabetic. Glibenclamide was given by oral gavage once a day (10 mg/kg/day) to diabetic animals to avoid mortality throughout the investigation (Abdel-Aziz A A-M. et al., Eur J Med Chem 46 (2011) 4324-4329). The male rats were trained for sexual behavior study before induction of diabetes and treatment, as mentioned above. Diabetic rats were given a daily oral dose of 5 mg/kg of compounds C9, C14 and C21 for 14 consecutive days. The sexual behavior of the animals was assessed on day 15 of the treatment. The copulatory behavior testing was performed, and CE and MII were calculated.

[5] = test system: sexually experienced male rats; experiment: Penile erection index (noncontact erection test); type: in vivo, rat; settings: for penile erection index (PEI): oral
Procedure: The penile erection index is an established means of determining the erection promoting properties of a substance. Determination of penile erection in a noncontact position was calculated as reported previously (Haripriya V M. et al., Andrologia 51 (2019) e13180; Sharma V. et al., J Ethnopharmacol 143 (2012) 201-206, the contents of each of which are hereby incorporated by reference in their entirety). The sexually experienced male rats of all groups were given the treatment 30 minutes before experimentation. The number of animals for each dose was ten rats in each experiment. […] The results shown are the average of three separate experiments. Control animals were given 0.5% CMC as a vehicle.
The rats of each group were placed in the observation cages (five at a time) divided into half by two sheets of metal mesh, preventing contact but allowing auditory, visual and olfactory stimuli. After a 5-min adaptation period, the test was started by placing an estrus female on the other side of the cage. Penile erection was recorded when the rats bent down to lick their erect penis. Homosexual mounting was also counted when a male rat mounted another male rat performing pelvic thrusts with or without a penile erection. […] The effective dose ED50 (the dose required to give 50% responding rats) for examined compounds was calculated using linear regression analysis by GraphPad software with the proportion of responding rats as the input data and expressed as μmol/kg.

[6] = molecular target: Phosphodiesterase type 5 (PDE5) (Homo sapiens (Human), UniProt O76074); experiment: In vitro phosphodiesterase type 5 (PDE5) inhibition assay; type: biochemical; settings: purified PDE5, IMAP FP assay

O=S(=O)(c1ccc(Cl)cc1Cl)N1CCC(c2ccccc2)CC1 [Compound C9, 1-((2,4-Dichlorophenyl)sulfonyl)-4-phenylpiperidine]
LD50 at 24 h [1]: > 2000 mg/kg
toxic symptoms after oral dosing [2]: gradually became drowsy and less responsive
efficacy in improving copulatory behavior [3]: more pronounced
ejaculation latency (EL) [3]: 368.3 s
intromission frequency (IF) [3]: 12.8
intromission latency (IL) [3]: 177.6 s
mount frequency (MF) [3]: 23.6
mount latency (ML) [3]: 74.6 s
post-ejaculatory interval (PEI) [3]: 355.6 s
copulatory efficiency (CE) ([3]; CE=(IF/MF)x100): 55.2%
mean intromission interval (MII) ([3]; MII=EL/IF): 29.0
ejaculation latency (EL) ([4]; male diabetic rats): 223.3 s
intromission frequency (IF) ([4]; male diabetic rats): 4.3
intromission latency (IL) ([4]; male diabetic rats): 305.1 s
mount frequency (MF) ([4]; male diabetic rats): 10.6
mount latency (ML) ([4]; male diabetic rats): 137.1 s
post-ejaculatory interval (PEI) ([4]; male diabetic rats): 552.8 s
copulatory efficiency (CE) ([4]; male diabetic rats, CE=(IF/MF)x100): 40.9%
mean intromission interval (MII) ([4]; male diabetic rats, MII=EL/IF): 53.1
sexual function in diabetic rats ([4]; versus diabetic control rats): restored
erectile response ([5]; oral treatment, 1.25-5 mg/kg): statistically elevated
penile erection index (PEI) ([5]; dose 1.25 mg/kg): 23.3 ± 3.3
penile erection index (PEI) ([5]; dose 2.5 mg/kg): 53.3 ± 8.8
penile erection index (PEI) ([5]; dose 5 mg/kg): 60.0 ± 5.7
IC50 [6]: 47.9 nM
